Experimental data as given in ChEMBL document CHEMBL1909046, “DrugMatrix in vitro pharmacology data”.

Experiments:
[1] = DRUGMATRIX: Leukotriene, BLT (LTB4) radioligand binding (ligand: [3H]LTB4); format: cell membranes, Membrane; conditions: u-937; Not Active = under 50% inhibition at 10 µM
Cytochrome P450 2C9 = Cytochrome P450 2C9 (Homo sapiens, UniProt P11712); conditions: bti-tn-5b1-4; further: in other assays of this panel Not Active means under 50% inhibition at 10 µM
Glucocorticoid receptor = molecular target: T1, Glucocorticoid receptor (Homo sapiens, UniProt P04150); conditions: hela s3; further: in other assays of this panel Not Active means under 50% inhibition at 10 µM
T1 sequence (P04150 whole entry): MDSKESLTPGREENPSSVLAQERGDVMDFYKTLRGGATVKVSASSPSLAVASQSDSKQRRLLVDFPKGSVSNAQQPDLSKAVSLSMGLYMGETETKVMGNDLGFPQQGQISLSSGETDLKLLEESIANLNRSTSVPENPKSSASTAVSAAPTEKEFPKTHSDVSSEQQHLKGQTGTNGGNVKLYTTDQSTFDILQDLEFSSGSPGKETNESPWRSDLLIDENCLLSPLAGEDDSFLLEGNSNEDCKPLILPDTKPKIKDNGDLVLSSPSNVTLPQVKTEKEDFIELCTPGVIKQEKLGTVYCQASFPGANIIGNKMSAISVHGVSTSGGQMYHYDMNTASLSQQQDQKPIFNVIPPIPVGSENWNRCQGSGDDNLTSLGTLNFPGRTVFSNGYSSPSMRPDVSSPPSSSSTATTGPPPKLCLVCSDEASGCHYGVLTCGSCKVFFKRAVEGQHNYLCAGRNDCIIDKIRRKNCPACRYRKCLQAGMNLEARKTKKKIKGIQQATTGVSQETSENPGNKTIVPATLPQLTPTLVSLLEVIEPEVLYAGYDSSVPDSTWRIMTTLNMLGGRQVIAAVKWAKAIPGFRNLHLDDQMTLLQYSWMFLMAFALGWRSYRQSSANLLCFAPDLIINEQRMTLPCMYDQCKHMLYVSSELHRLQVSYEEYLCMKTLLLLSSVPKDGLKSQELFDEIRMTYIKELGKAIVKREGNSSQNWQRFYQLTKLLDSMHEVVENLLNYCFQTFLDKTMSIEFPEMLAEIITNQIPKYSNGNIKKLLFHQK

[2] = molecular target: Tyrosine-protein kinase Lck (Homo sapiens, UniProt P06239); assay: DRUGMATRIX: Protein Tyrosine Kinase, LCK enzyme inhibition (substrate: Poly(Glu:Tyr)); format: cell-based, Insect cells; conditions: Not Active = under 50% inhibition at 10 µM
Sequence of Tyrosine-protein kinase Lck (P06239 whole entry): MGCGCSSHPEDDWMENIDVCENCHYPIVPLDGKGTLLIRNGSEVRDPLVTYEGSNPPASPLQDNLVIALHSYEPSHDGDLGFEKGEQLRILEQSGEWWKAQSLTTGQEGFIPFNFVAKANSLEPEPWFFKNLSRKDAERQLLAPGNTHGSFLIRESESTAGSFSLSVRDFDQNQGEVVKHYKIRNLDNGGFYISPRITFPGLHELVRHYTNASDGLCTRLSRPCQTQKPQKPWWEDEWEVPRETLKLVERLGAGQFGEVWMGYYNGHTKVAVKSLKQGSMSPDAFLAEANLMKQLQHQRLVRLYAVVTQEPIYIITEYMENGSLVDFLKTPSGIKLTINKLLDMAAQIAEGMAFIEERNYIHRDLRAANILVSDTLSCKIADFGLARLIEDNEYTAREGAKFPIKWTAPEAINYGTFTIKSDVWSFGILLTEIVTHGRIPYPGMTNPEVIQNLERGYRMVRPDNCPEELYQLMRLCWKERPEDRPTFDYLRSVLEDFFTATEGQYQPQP

[3] = molecular target: Aldo-keto reductase family 1 member B1 (Rattus norvegicus, UniProt P07943); assay: biochemical; format: tissue-based, Lens of camera-type eye;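 further: inhibition of aldose reductase enzyme activity, measured with DL-glyceraldehyde as the substrate; in other assays of this panel Not Active means under 50% inhibition at 10 µM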
[4] = molecular target: T2, 3-hydroxy-3-methylglutaryl-coenzyme A reductase (Homo sapiens, UniProt P04035); parameters: species or system Escherichia coli;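 further: enzyme inhibition assay of HMG-CoA reductase using radiolabeled [14C]HMG-CoA as substrate; in other assays of this panel Not Active means under 50% inhibition at 10 µM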
T2 sequence (P04035 whole entry): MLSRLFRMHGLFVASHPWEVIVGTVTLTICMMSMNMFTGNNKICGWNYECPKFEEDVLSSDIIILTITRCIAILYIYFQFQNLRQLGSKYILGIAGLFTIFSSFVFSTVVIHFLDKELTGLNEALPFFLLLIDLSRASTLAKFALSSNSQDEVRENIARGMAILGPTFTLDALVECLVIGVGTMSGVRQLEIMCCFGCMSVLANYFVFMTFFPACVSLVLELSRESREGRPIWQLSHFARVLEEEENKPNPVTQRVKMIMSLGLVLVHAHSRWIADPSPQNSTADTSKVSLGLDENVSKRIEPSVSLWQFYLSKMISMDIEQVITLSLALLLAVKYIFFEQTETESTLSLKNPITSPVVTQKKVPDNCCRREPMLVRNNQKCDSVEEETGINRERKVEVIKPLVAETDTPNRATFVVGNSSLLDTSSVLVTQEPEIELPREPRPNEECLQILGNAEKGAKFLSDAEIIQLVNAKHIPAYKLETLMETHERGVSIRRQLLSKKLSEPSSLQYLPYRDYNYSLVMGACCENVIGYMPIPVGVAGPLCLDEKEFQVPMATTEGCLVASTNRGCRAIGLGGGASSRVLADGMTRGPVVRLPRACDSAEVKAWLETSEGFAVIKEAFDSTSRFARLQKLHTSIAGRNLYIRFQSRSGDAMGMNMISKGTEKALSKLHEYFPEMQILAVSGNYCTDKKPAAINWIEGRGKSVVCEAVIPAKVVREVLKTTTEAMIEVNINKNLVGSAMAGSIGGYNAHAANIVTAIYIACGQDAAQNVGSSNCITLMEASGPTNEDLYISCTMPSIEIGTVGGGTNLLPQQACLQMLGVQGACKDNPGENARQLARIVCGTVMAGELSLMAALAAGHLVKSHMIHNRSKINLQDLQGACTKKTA

Cytochrome P450 2E1 = Cytochrome P450 2E1 (Homo sapiens, UniProt P05181); conditions: bti-tn-5b1-4; further: in other assays of this panel Not Active means under 50% inhibition at 10 µM
Sequence of Cytochrome P450 2E1 (P05181 whole entry): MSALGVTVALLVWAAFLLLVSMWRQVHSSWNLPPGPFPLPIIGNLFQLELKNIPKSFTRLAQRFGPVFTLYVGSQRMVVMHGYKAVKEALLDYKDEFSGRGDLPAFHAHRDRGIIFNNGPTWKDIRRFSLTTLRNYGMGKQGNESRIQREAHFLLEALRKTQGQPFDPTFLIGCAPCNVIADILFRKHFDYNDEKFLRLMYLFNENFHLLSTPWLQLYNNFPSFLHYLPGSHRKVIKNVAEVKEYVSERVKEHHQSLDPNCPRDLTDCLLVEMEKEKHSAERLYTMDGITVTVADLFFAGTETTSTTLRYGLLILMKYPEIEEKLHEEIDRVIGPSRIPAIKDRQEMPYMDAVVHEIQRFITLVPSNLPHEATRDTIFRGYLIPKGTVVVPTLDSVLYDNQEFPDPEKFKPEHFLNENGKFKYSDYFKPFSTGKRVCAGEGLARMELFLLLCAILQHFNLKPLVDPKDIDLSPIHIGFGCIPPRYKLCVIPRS

Sequence of Cytochrome P450 2C9 (P11712 whole entry): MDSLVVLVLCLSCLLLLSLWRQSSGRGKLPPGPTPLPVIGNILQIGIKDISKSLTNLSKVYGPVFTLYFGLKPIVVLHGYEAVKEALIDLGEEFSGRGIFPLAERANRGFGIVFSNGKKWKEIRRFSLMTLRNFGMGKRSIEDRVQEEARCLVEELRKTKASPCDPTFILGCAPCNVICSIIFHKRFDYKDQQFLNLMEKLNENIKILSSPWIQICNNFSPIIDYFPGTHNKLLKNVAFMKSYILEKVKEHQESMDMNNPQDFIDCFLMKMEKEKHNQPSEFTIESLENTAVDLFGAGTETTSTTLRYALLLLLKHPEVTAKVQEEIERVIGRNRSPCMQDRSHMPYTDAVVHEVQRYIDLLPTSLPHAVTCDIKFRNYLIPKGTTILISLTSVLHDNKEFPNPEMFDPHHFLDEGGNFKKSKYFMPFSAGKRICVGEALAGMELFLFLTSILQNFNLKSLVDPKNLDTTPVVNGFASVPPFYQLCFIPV

Structure (SMILES)	IC50 [1]	Ki [1]	IC50 (Cytochrome P450 2C9)	Ki (Cytochrome P450 2C9)	IC50 (Glucocorticoid receptor)	IC50 ([2]; insect cells)	IC50 [3]	IC50 [4]	IC50 (Cytochrome P450 2E1)	Ki (Cytochrome P450 2E1)	IC50 ([2]; read-out: IC50)
COCCc1ccc(OCC(O)CNC(C)C)cc1 (stereo unspecified) [METOPROLOL]	Not Active	Not Active	Not Active	Not Active	Not Active	Not Active	Not Active	Not Active	Not Active	Not Active	–
NCCCCCC(=O)O [AMINOCAPROIC ACID]	Not Active	Not Active	Not Active	Not Active	Not Active	Not Active	Not Active	Not Active	Not Active	Not Active	–
CCCN1C[C@H](CSC)C[C@@H]2c3cccc4[nH]cc(c34)C[C@H]21 [PERGOLIDE]	Not Active	Not Active	Not Active	Not Active	Not Active	Not Active	Not Active	Not Active	Not Active	Not Active	–
CN(C)C(=O)Oc1cc(OC(=O)N(C)C)cc(C(O)CNC(C)(C)C)c1 (stereo unspecified) [BAMBUTEROL]	Not Active	Not Active	Not Active	Not Active	Not Active	Not Active	Not Active	Not Active	Not Active	Not Active	–
c1ccc(Nc2ccc(Nc3ccccc3)cc2)cc1	Not Active	Not Active	Not Active	Not Active	Not Active	Not Active	Not Active	Not Active	Not Active	Not Active	–
Cc1cc(C(C#N)c2ccc(Cl)cc2)c(Cl)cc1NC(=O)c1cc(I)cc(I)c1O (stereo unspecified) [CLOSANTEL]	Not Active	Not Active	–	–	Not Active	–	Not Active	Not Active	Not Active	Not Active	1.25 µM
Cc1ccc2cc3c(ccc4ccccc43)c3c2c1CC3 [3-METHYLCHOLANTHRENE]	Not Active	Not Active	Not Active	Not Active	Not Active	–	Not Active	Not Active	Not Active	Not Active	55.5 µM
Nc1nc2c(ncn2CCC(CO)CO)c(=O)[nH]1 [PENCICLOVIR]	Not Active	Not Active	Not Active	Not Active	Not Active	Not Active	Not Active	Not Active	Not Active	Not Active	–
Cc1ccc(-c2cc(C(F)(F)F)nn2-c2ccc(S(N)(=O)=O)cc2)cc1 [CELECOXIB]	Not Active	Not Active	Not Active	Not Active	Not Active	Not Active	Not Active	Not Active	Not Active	Not Active	–
CCCCc1nc(Cl)c(CO)n1Cc1ccc(-c2ccccc2-c2nnn[nH]2)cc1 [LOSARTAN]	Not Active	Not Active	–	–	Not Active	Not Active	Not Active	Not Active	Not Active	Not Active	–
